Experimental data from US20080279856A1, “Inhibition of Bradykinin Release” (Novo Nordisk Pharmaceuticals, Inc., priority 1999, published 2008).
Positions count from the first letter of the chain named. Names and notes keep the numbering of the source.

T1: HBP (Homo sapiens, UniProt P20160)
T1 sequence (P20160 27-248): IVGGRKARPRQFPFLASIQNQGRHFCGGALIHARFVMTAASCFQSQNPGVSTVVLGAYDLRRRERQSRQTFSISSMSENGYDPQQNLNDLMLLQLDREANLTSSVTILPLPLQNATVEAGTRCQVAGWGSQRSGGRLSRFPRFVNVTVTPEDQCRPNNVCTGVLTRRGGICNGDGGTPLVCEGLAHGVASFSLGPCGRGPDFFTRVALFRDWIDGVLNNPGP

T2: HBP mutant (G175N) (Homo sapiens, UniProt P20160, G201N)
T2 sequence (P20160 27-248 G201N): T1 sequence (P20160 27-248) with G175N

B1: HBP mutant (G175N): HBP mutant unable to bind aprotinin, three dimensional structure unaltered (protein)
chain: T1 sequence (P20160 27-248) with G175N

Columns and labels:
[1] = 3H-LPS binding to HBP, scintillation proximity assay; details: up to 50 mM unlabeled BPTI
Procedure: The affinity for lipopolysaccharide (3H-LPS) is measured by scintillation proximity assay technology (SPA) as described (Linde, V., Bjørn, S., Kastrup, J. S., and Flodgaard, H., 2000, Biotechniques 28:218-222). All samples are repeated in triplicates.

[2] = tested on: HBP-induced increase in EC permeability; test: Inhibition of HBP-induced increase in EC permeability; assay type: cell-based, human, bovine; details: aprotinin 100 μg/ml, 30 min pre-incubation; HBP 75 μg/ml; N=6
Source text: Alternatively, HBP antagonists may be detected by culturing endothelial cells in the presence of HBP and in the presence and absence of a substance suspected of being an antagonist. In a specific embodiment, the antagonist is a monoclonal antibody that binds to at least one epitope of HBP, preferably human HBP, wherein said epitope binds to prekallikrein-H-kininogen complex and activates release of bradykinin. In a preferred embodiment, the monoclonal antibody is a human monoclonal antibody. In one embodiment, the antibody and HBP are preincubated together before incubating with endothelial cells for about 10 minutes at 37° C. The effect of the substance on the permeability of endothelial cells is determined by measuring transendothelial electrical resistance or determining albumin clearance as described in the Examples, infra. A decrease in permeability would indicate that the substance does act as an HBP antagonist.
For measurement of electrical resistance across the EC monolayer, the filter insert is transferred to a resistance measurement chamber (ENDOHM-12; World Precision Instruments, Sarasota, Fla., USA) modified so as to assure exact positioning of the electrodes in relation to each other and to the filter insert during repeated measurements. The chamber (lower compartment) and the filter insert (upper compartment) are filled with 2 ml and 400 μl culture medium, respectively. […] Direct readings of the electrical resistance are given by an ohmmeter (EVOM; World Precision Instruments, Sarasota, Fla., USA) connected to the electrodes of the resistance chamber. The electrical resistance of individual EC monolayers is obtained by subtracting the resistance of the corresponding naked filter coated with Biomatrix as measured prior to seeding of the endothelial cells.
Evans blue dye-conjugated albumin (EBA) is used as a marker for macromolecular permeability of the EC monolayers. […] In experiments where albumin permeability is analyzed, the culture medium in the upper compartment is exchanged for medium containing EBA. […]

HBP = target: T1, HBP; details: cited from earlier work
HBP mutant (G175N) = target: T2, HBP mutant (G175N); test: Aprotinin effect on leakage induced by HBP mutant (G175N); assay type: cell-based; details: leakage model
[3] = after cardiac operations; cited from earlier work
[4] = tested on: kallikrein-C1-inhibitor and C1-C1-inhibitor complexes; details: cited from earlier work
[5] = tested on: bradykinin-induced increase in EC permeability; test: Inhibition of bradykinin-induced increase in EC permeability; assay type: cell-based, human, bovine; details: aprotinin 100 μg/ml; subsequent bradykinin 100 nM
Procedure: For measurement of electrical resistance across the EC monolayer, the filter insert is transferred to a resistance measurement chamber (ENDOHM-12; World Precision Instruments, Sarasota, Fla., USA) modified so as to assure exact positioning of the electrodes in relation to each other and to the filter insert during repeated measurements. The chamber (lower compartment) and the filter insert (upper compartment) are filled with 2 ml and 400 μl culture medium, respectively. All measurements are made at 37° C. with the equipment placed in a cell culture incubator. Direct readings of the electrical resistance are given by an ohmmeter (EVOM; World Precision Instruments, Sarasota, Fla., USA) connected to the electrodes of the resistance chamber. The electrical resistance of individual EC monolayers is obtained by subtracting the resistance of the corresponding naked filter coated with Biomatrix as measured prior to seeding of the endothelial cells.
Before transferring the filter inserts to the resistance measurement chamber (kept at 37° C.), the medium in the insert and in the chamber is replaced with fresh culture medium (37° C.) supplemented with 10 mM Hepes. HBP (25-100 μg/ml) or PMN secretion product is added either to the upper or the lower compartment and change in transendothelial electrical resistance is measured every minute until a plateau phase is reached, and thereafter at 5-min intervals. In separate experiments, PMNs (2×10^6) preincubated with mAb IB4 (10 μg/ml) are added to the upper compartment (PMN:EC ratio=10:1) and allowed to sediment for 10 min. Activation of the PMNs is induced through antibody crosslinking of leukocytic CD18 by addition of goat anti-mouse IgG F(ab′)2 diluted 1:20. In experiments where albumin permeability across the EC monolayer is studied, the medium in the insert contained EBA. During the experiment, the filter insert is moved at 5-10 min intervals to new wells containing fresh medium. All incubations are made at 37° C. After the experiment, the medium in the lower wells is aspirated and analyzed for EBA content.

vascular permeability = details: cited from earlier work
endothelial cell = details: hypoxic cold storage in organ preservation solutions; cited from earlier work
aprotinin = aprotinin (Bos taurus, UniProt P00974); test: Ability of HBP variants to bind aprotinin; assay type: binding
EC permeability = test: Leakage model: bradykinin release and EC permeability induced by HBP variants; assay type: cell-based

| Molecule | competition for 3H-LPS binding to native HBP [1] | effect on HBP-induced increase in EC permeability [2] | Kd (HBP) | effect of aprotinin on mutant-induced leakage (HBP mutant (G175N)) | blood loss [3] | postoperative bleeding time [3] | kallikrein-C1-inhibitor and C1-C1-inhibitor complexes [4] | effect on bradykinin-induced permeability change [5] | vascular permeability and neutrophil count (vascular permeability) | endothelial cell viability (endothelial cell) | ability to bind aprotinin (aprotinin) | induction of bradykinin release and EC permeability (EC permeability) |
| --- | --- | --- | --- | --- | --- | --- | --- | --- | --- | --- | --- | --- |
| aprotinin | no inhibitory effects | largely prevented | 100 nM | no inhibitory effect | reduces blood loss | decreases the elevated postoperative bleeding time | decrease | but not the permeability change induced by subsequent administration of bradykinin | decreased this vascular permeability and neutrophil count | increases endothelial cell viability | – | – |
| B1 | – | – | – | – | – | – | – | – | – | – | unable to bind aprotinin | induces bradykinin release and increase in EC permeability |
